Data from paper PMC6941357, “An in vitro toolbox to accelerate anti-malarial drug discovery and development” (Malaria Journal, 2020).

Key:
physchem = details: for An (absorption number): Peff × tres/R, minimum 1; for Ssi (estimated solubility in the small intestine): based on measured FaSSIF solubility; for Permeability classification: based on ref 80 and control compounds; for Predicted human Peff: from Caco-2 Papp via calibration plot
Text: Predicted Peff values were obtained from a calibration plot of literature Peff values vs measured Caco-2 Papp using either buffer or plasma as the transport medium (see Results section).

[1] = biological target: T1, Albumax medium (lipid rich bovine serum albumin) (Bos taurus, UniProt P02769); assay: Binding in Albumax medium via ultracentrifugation; format: in vitro ADME
T1 construct: purchased Gibco, Thermo Fisher Scientific
Experimental: (§1) An ultracentrifugation method adapted from a previous publication was initially used to assess plasma protein binding and binding in the other media. […] Additional ultracentrifuge tubes containing spiked matrix were maintained at 37 °C, 5% or 10% CO2 or normal atmosphere conditions, with aliquots being taken within 0.5 h of the start and at the end of ultracentrifugation to serve as controls for the assessment of stability and to obtain a measure of the total concentration (Ctotal). Following ultracentrifugation, the pH was checked and an aliquot of protein-free supernate was taken from each ultracentrifuge tube for determination of the unbound concentration (Cunbound).
(§2) Total matrix and protein free samples were analysed using a matrix matching approach whereby each sample was mixed in a 1:1 ratio with the opposite blank medium (i.e. blank total matrix or blank protein free buffer). For example, plasma samples were mixed with blank pH 7.4 buffer whereas plasma supernatant samples were mixed with blank plasma. Each of the sample sets were then assayed against a common calibration curve prepared in a 1:1 mixture of total matrix and protein free pH 7.4 buffer. […] The standard deviation for fu was calculated using the propagation of errors approach as described previously. The potential for compound degradation was assessed by comparing the average value for Ctotal at the start and end of the experiment.

[2] = Plasma protein binding via ultracentrifugation (UC); format: in vitro ADME, human; details: human, neat pooled plasma, pH 7.4; ultracentrifugation, neat plasma; read-out: Fraction unbound, human plasma
Experimental: Pooled human plasma (n = 3–4 donors) was obtained by centrifugation of blood (collected by the Australian Red Cross Blood Service, Melbourne, Australia or the Volunteer Blood Donor Registry, Clinical Translation Centre, Walter & Eliza Hall Institute of Medical Research, Parkville, Australia), or sourcing pooled plasma directly from commercial sources (Innovative Research Inc, MI) and stored frozen at − 80 °C.
as §1, §2

[3] = In vitro metabolism (metabolic stability) in human liver microsomes; details: human, liver microsomes, pH 7.4, HLM CLint, human liver microsomes; average of n = 2 replicates; < 7 means < 15% loss over 60 min
Method in brief: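 Compound depletion in human liver microsomes was followed by LC–MS at 2–60 min, with cofactor-free controls. First-order depletion rate constants gave in vitro CLint (µL/min/mg protein), corrected to unbound CLint using measured microsomal fu.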

CYP2D6 = CYP2D6 (Homo sapiens, UniProt P10635); assay: Cytochrome P450 inhibition in human liver microsomes
Experimental: (§3) The CYP inhibition assay was based on a previous publication with minor modifications. The method uses human liver microsomes and a substrate-specific interaction approach which relies on the formation of a metabolite that is mediated by a specific CYP isoform. The specific CYP-mediated metabolic pathways, substrates, substrate Km values, positive control inhibitors and specific incubation conditions are shown in Additional file 1: Table S4. […] Samples were quenched by the addition of ice-cold acetonitrile containing diazepam as the analytical internal standard. Concentrations of the substrate-specific metabolites in quenched samples were determined by LC–MS (Additional file 1: Table S5) relative to calibration standards prepared in quenched microsomal matrix.
(§4) The inhibitory effect of each test compound and positive control inhibitor was based on the reduction in the formation of the specific CYP-mediated metabolite (represented as percent inhibition of enzyme activity) relative to metabolite formation in the absence of inhibitor (i.e. control for maximal enzyme activity). […] The Km was determined under the same incubation conditions by measuring the rate of metabolite formation (pmol/min/mg protein) as a function of substrate concentration (Additional file 1: Table S4).

[4] = Octanol/pH 7.4 buffer partition coefficient, shake flask; details: octanol/pH 7.4 buffer, shake flask, 37 °C
Method in brief: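 Octanol stocks (3-30 mg/mL) were diluted 3- and 10-fold and shaken with equal volumes of pH 7.4 phosphate buffer (67 mM, in 43 mM NaCl) at 37 °C. Both phases were quantified by LC-MS against calibration standards. The coefficient is the mean octanol/buffer concentration ratio, with two time points confirming equilibrium.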

CYP1A2 = biological target: T2, CYP1A2 (Homo sapiens, UniProt P05177); assay: in vitro
T2 sequence (P05177 1-516): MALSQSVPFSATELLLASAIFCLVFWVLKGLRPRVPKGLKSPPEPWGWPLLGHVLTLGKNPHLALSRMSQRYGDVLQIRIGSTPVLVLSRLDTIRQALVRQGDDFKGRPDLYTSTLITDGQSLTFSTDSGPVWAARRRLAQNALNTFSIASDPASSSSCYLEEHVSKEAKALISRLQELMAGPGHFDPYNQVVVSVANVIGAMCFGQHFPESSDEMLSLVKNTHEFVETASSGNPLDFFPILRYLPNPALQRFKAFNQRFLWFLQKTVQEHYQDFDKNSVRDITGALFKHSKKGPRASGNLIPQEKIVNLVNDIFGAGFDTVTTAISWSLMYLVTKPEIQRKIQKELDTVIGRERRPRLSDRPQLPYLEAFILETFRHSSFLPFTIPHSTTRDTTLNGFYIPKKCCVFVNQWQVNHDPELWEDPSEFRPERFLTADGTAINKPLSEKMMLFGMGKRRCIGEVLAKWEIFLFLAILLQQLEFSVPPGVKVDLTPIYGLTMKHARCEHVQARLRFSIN
Experimental: as §3, §4

T1 sequence (P02769 25-607): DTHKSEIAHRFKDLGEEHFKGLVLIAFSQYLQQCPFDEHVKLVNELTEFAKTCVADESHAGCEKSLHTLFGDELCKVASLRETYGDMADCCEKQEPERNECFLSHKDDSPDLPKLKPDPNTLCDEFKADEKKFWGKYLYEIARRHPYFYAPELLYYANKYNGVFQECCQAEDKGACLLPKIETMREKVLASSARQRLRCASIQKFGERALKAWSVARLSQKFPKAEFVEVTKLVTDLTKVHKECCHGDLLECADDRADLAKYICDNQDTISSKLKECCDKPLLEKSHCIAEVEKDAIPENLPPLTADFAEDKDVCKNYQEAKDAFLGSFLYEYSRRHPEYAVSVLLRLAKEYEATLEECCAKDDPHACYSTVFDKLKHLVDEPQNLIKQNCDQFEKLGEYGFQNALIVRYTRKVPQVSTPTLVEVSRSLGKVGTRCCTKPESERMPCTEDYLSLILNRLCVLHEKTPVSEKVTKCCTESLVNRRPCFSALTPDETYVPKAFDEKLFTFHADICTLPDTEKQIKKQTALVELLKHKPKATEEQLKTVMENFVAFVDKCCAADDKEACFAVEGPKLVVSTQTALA
Sequence of CYP2D6 (P10635 whole entry, canonical isoform): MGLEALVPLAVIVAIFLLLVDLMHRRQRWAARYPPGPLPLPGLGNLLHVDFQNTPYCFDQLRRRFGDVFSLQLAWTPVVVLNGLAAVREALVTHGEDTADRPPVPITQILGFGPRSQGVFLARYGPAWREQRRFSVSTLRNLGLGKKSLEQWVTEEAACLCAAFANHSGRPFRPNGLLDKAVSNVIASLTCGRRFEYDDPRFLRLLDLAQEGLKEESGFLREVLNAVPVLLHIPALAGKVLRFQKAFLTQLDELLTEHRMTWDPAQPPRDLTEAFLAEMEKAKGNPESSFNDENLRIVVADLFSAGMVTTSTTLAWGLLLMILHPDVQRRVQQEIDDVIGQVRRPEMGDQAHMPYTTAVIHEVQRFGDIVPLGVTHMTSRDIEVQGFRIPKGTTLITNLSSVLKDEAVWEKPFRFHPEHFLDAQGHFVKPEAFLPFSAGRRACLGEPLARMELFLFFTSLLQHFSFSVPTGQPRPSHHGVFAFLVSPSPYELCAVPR

Structure (SMILES) | SLAD (physchem) [mg] | An (absorption number) (physchem) | Ssi (estimated solubility in the small intestine) (physchem) [µg/mL] | Permeability classification (physchem) | Predicted human Peff (physchem) | Fraction unbound, Albumax [1] | CYP2D6 % inhibition at max conc (CYP2D6; microsomes) | Measured Log D7.4 [4] | CYP1A2 % inhibition at max conc (CYP1A2; microsomes) | IC50 (CYP1A2; microsomes) [µM] | IC50 (CYP2D6; microsomes) [µM] | Ki (CYP2D6; microsomes) [µM] | also measured
Cc1cc(Nc2ccc(C(F)(F)F)nc2)n2nc(C(C)(F)F)nc2n1 [DSM421] | 182 | 3.9 | 93.0 | High (> 85% absorption (high)) | 3.3 10^−4 cm/s | 0.43 ± 0.020 |  |  |  |  |  |  | 
C[C@H]1c2cccc(O)c2C(=O)C2=C(O)[C@]3(O)C(=O)C(C(N)=O)=C(O)[C@@H](N(C)C)[C@@H]3[C@@H](O)[C@@H]21 [Doxycyclin] |  | 1.0 |  | Intermediate (50–84% absorption (intermediate)) | 0.70 10^−4 cm/s |  | nmi |  |  |  |  |  | solubility (physchem; FaSSIF): > 2000 µg/mL; SLAD (physchem; Ssi × V (500 mL) × Mp): > 1000 mg; fraction unbound at […] [2]: 0.23; fraction unbound at […], 500 ng/mL ([1]; bovine, isolated protein, pH 7.4): 0.41 ± 0.023; microsomal CLint at 1 µM [3]: < 7 µL/min/mg; IC50 (CYP2D6): > 20 µM
CS(=O)(=O)O.FC1CCN(CCOc2ccc(C3CCC4(CC3)OOC3(OO4)C4CC5CC(C4)CC3C5)cc2)CC1 (stereo not shown) [TDD-E209] | 579 | 13 | 87.0 | High (> 85% absorption (high)) | 11 10^−4 cm/s | 0.0070 ± 0.0010 |  |  |  |  |  |  | 
CCc1nc(N)nc(N)c1OCCCOc1ccccc1CCC(=O)O.Cl [P218] | 204 | 1.0 | 408 | Low (< 50% absorption (low)) | 0.24 10^−4 cm/s | 0.41 ± 0.022 | nmi | 0.080 | nmi | > 20 | > 20 |  | 
CCN(CC)CCCNc1ccnc2cc(Cl)ccc12.Cl.Cl [AQ-13] | > 2250 | 2.2 | > 2000 | High (> 85% absorption (high)) | 1.9 10^−4 cm/s | 0.85 ± 0.028 |  | 1.30 | nmi | > 20 | 13 | 8.3 | 
COc1cc2[nH]c(C)c(-c3ccc(Oc4ccc(OC(F)(F)F)cc4)cc3)c(=O)c2cc1Cl [ELQ300] | 3 | 13 | 0.520 | High (> 85% absorption (high)) | 11 10^−4 cm/s |  |  |  | nmi | > 20 | 8 | 5 | 
COc1cc(N[C@H](C)CCCN)c2nccc(C)c2c1Oc1ccc(Cl)c(Cl)c1 [NPC1161B] |  |  |  |  |  | 0.035 ± 0.0020 | 39% |  |  | 6.5 | > 20 |  | Ki (CYP1A2; microsomes): 3.8 µM
CCCCN(CCCC)CC(O)c1cc(Cl)cc2c1-c1ccc(Cl)cc1/C2=C/c1ccc(Cl)cc1 (stereo not shown) [Lumefantrine] |  |  |  |  |  |  |  |  | nmi |  |  |  | microsomal CLint at 1 µM [3]: < 7 µL/min/mg; IC50 (CYP1A2): > 20 µM; IC50 (CYP2D6): 2.9 µM; Ki (CYP2D6): 1.8 µM
CC(C)(C)NCc1cc(C(C)(C)C)cc(-c2cnc(C(F)(F)F)c(F)c2)c1O [JPC3210] | 51 | 13 | 7.60 | High (> 85% absorption (high)) | 11 10^−4 cm/s | 0.21 ± 0.012 |  | 5.30 | nmi | > 20 | 0.7 | 0.43 | 
CC(C)(C)NCc1cc(Nc2ccnc3cc(Cl)ccc23)c2c(c1O)CCCC2 [Naphthoquine] | 2250 | 11 | 410 | High (> 85% absorption (high)) | 9.2 10^−4 cm/s | 0.27 ± 0.035 |  | 4.18 | 33% | > 20 | 1.1 | 0.68 | 
O=C(NCCN1CCCC1)c1cc(-c2ccc(CN3CCOCC3)cc2)nc2ccc(F)cc12 [M5717] | > 6050 | 4.0 | > 3000 | High (> 85% absorption (high)) | 3.4 10^−4 cm/s | 0.55 ± 0.041 | nmi |  | nmi | > 20 | > 20 |  | 
CN(C)C[c-]1cccc1CNc1ccnc2cc(Cl)ccc12.[Fe+2].c1cc[cH-]c1 (stereo not shown) [Ferroquine] |  | 2.7 | 320 | High (> 85% absorption (high)) | 2.2 10^−4 cm/s | 0.52 ± 0.031 |  | 3.39 | nmi | > 20 | 0.83 | 0.52 | SLAD (physchem; Ssi × V (500 mL) × Mp): 426 mg
